Results on three compounds are retold here after article PMC2922868 (ACS medicinal chemistry letters, 2010).

Test [1] concerns Hsp90-IP6K2 interaction. Conditions: ref [17], cited from earlier work.
The next test deals with Hsp90-IP6K2 pathway. Conditions: ref [17]; cited from earlier work.
The test system of another test is Hsp90-FKBP52 interaction. As to conditions: not tested in this paper; reference not given; cited from earlier work.
Test [2] relates to IP6K2 over expressed (K2-O/E) HEK 293 cells. In words: cell survival, IP6K2 over expressed vs wild-type HEK 293 cells. As to conditions: 48 hours, CCK-8. It counts as cell-based.
In test [3] the test system is C-terminal domain of Hsc82 (yeast variant of Hsp90). In words: pull-down with San A-amide-Biotin, Hsc82 C-terminal domain. It is filed as binding. Conditions: San A-amide-Biotin as probe, His-fusion, Figure 5 lane 4.
For another test, the system named is Hsp90. The test is described as follows: Hsp90 ATPase activity / ATP hydrolysis. It counts as biochemical. Conditions: Supplementary data, Figure S7.
Test [4] relates to N-middle domain of Hsc82 (yeast variant of Hsp90). The test is described as follows: pull-down with San A-amide-Biotin, Hsc82 N-middle construct. It counts as binding. As to conditions: San A-amide-Biotin as probe, His-fusion, Figure 5 lane 5.
The test system of test [5] is N-terminal domain of Hsc82 (yeast variant of Hsp90). The test is described as follows: pull-down with San A-amide-Biotin, Hsc82 N-terminal domain. It is filed as binding. Conditions: San A-amide-Biotin as probe, His-fusion, Figure 5 lane 2.
In test [6] the test system is middle domain of Hsc82 (yeast variant of Hsp90). It is filed as binding. As to conditions: pull-down, San A-amide-Biotin as probe; His-fusion; Figure 5 lane 3.
The subject of test [7] is full length Hsc82 (yeast variant of Hsp90). The test is described as follows: pull-down with San A-amide-Biotin, Hsc82 full length. It is filed as binding. Conditions: San A-amide-Biotin as probe, His-fusion, Figure 5 lane 6.
In test [8] the test system is Hsp90-IP6K2 interaction. In words: in vitro pull down binding assay, Hsp90-IP6K2.
For test [9] the following is noted: ref [6], [8]; cited from earlier work.

Entries after “also recorded” stand apart in the source; their conditions may differ. Like-named read-outs stand apart in the source and are kept apart here.

As to `C=CCNC1=C2C[C@@H](C)C[C@H](OC)[C@H](O)[C@@H](C)/C=C(\C)[C@H](OC(N)=O)[C@@H](OC)/C=C\C=C(/C)C(=O)NC(=CC1=O)C2=O` [17-AAG, 17-allylamino, 17-demethoxygeldanamycin], the “IP6K2 binding inhibition at 10 μM (in words)” value in the test with Hsp90-IP6K2 interaction [1] (10 μM) was “not inhibited”. Further, the “effect on IP6K2 binding to Hsp90 (in words)” value was “did not affect the binding of IP6K2” in the test on Hsp90-IP6K2 interaction [1]; “FKBP and IP6K2 binding to Hsp90 are not affected” in the test with Hsp90-IP6K2 interaction [1] (listed as 17AAG). Also, in the test with Hsp90-IP6K2 pathway, the “effect on Hsp90-IP6K2 pathway (in words)” value is “did not affect this pathway”.

`CO[C@@H]1[C@@H](OC(N)=O)[C@@H](O)[C@H](Oc2ccc3c(O)c(NC(=O)c4ccc(O)c(CC=C(C)C)c4)c(=O)oc3c2C)OC1(C)C` [novobiocin]: the EC50 (commonly the concentration needed to bring the measured effect to its halfway point) with Hsp90-IP6K2 interaction [1] (read-out: EC50, inhibition of IP6K2 binding to Hsp90) is about 100 µM. Further, the “effect on IP6K2 binding to Hsp90 (in words)” value with Hsp90-IP6K2 interaction [1] is reported as “only disrupts Hsp90-IP6K2”. For the same compound, the “effect on Hsp90-FKBP binding (in words)” value with Hsp90-FKBP52 interaction is reported as “not FKBP binding”.

For the compound Sansalvamide A-amide [San A-amide], the “fold change in survival difference, with drug vs no drug (3% vs 27% change)” value in test [2] (25 μM San A-amide, K2-O/E vs wild type HEK 293) is given as ~ 9 fold. Also, in [2] (25 μM San A-amide, change without drug 3%), the “change in cell survival, K2-O/E compared to wild type (control)” value is 27%. Besides, the “cell survival in K2-O/E compared to wild type (in words)” value in test [2] (25 μM) is “cell survival is substantially decreased in cells that over-express IP6K2 compared to wild type cells”. Also, the “induction of cell death through the Hsp90-IP6K2 pathway (in words)” value in [2] (25 μM, HEK 293) was “induces cell death, at least in part, through the Hsp90-IP6K2 pathway”. Further, the “binding to C-terminal domain” value in test [3] was “no affinity”. Further, in the test on Hsp90, the “effect on ATP hydrolysis by Hsp90” value was “no affect on ATP hydrolysis”. Moreover, the “binding to N-middle construct” value in test [4] is “optimal affinity; also recorded: specifically binds to the N-middle domain of Hsp90”. Further, the “binding to N-terminal domain” value in test [5] is recorded as “only a marginally detectable interaction”. Besides, in test [6], the “binding to middle domain” value is “partial affinity”. Also, the “binding to full length Hsc82” value in test [7] was “bound to full length Hsp90”. The “effectiveness relative to novobiocin, IP6K2 binding (in words)” value in the test on Hsp90-IP6K2 interaction [8] (EC50 ~1 μM vs ~100 μM for novobiocin (ref [17])) is reported as “significantly more effective binding inhibitor”. For the same compound, the “inhibition of IP6K2 binding to Hsp90 (in words)” value with Hsp90-IP6K2 interaction [8] (native Hsp90 from HeLa cells, His-IP6K2, 0-10 μM) is “able to block both Hsp90-IP6K2 and Hsp90-FKBP interactions; also recorded: blocks the binding of Hsp90 to a client protein; also recorded: inhibits the binding of the C-terminal interacting protein, IP6K2, to Hsp90”. In the test with Hsp90-IP6K2 interaction [8] (versus Novobiocin), the “fold potency over Novobiocin at inhibiting C-terminal client proteins” value is “over 100 fold”. The “apoptosis (in words)” value in test [9] is recorded as “shown to cause apoptosis”.
